Reference: patent US8648066B2 (Exelixis, Inc., priority 2009, dated 2014)

These molecules were tested against mTOR/GbL/Raptor (mTORC1) (Homo sapiens, UniProt P42345) (assay: mTOR/GbL/Raptor (mTORC1) ELISA assay). Conditions: phosphorylation of 4E-BP1; 0.2 nM mTORC1, 10 μM ATP; read-out: IC50 in this assay (mTORC1 ELISA).
Assay type: biochemical
Description: The measurement of mTORC1 enzyme activity was performed in an ELISA assay format following the phosphorylation of 4E-BP1 protein. All experiments were performed in the 384-well format. Generally, 0.5 μL DMSO containing varying concentrations of the test Compound was mixed with 15 μL enzyme solution. Kinase reactions were initiated with the addition of 15 μL of substrates-containing solution. The assay conditions were as follows; 0.2 nM mTORC1, 10 μM ATP and 50 nM NHis-tagged 4E-BP1 in 20 mM Hepes, pH 7.2, 1 mM DTT, 50 mM NaCl, 10 mM MnCl2, 0.02 mg/mL BSA, 0.01% CHAPS, 50 mM β-glycerophosphate. Following an incubation of 120 minutes at ambient temperature, 20 μL of the reaction volume was transferred to a Ni-Chelate-coated 384-well plate. The binding step of the 4E-BP1 protein proceeded for 60 minutes, followed by washing 4 times each with 50 μL of Tris-buffered saline solution (TBS). Anti-phospho-4E-BP1 rabbit-IgG (20 μL, 1:5000) in 5% BSA-TBST (0.2% Tween-20 in TBS) was added and further incubated for 60 minutes. Incubation with a secondary HRP-tagged anti-IgG was similarly performed after washing off the primary antibody (4 washes of 50 μL). Following the final wash step with TBST, 20 μL of SuperSignal ELISA Femto (Pierce Biotechnology) was added and the luminescence measured using an EnVision plate reader.

IC50 [nM]	Structure (SMILES)
10 to 50	Cc1ncnc(N2CCOc3ccc(-c4cnc5nc(N)cn5c4)cc3C2)c1Cc1ccc(F)cc1 [Example 144, 6-(4-{5-[(4-fluorophenyl)methyl]-6-methylpyrimidin-4-yl}-2,3,4,5-tetrahydro-1,4-benzoxazepin-7-yl)imidazo[1,2-a]pyrimidin-2-amine]
≤ 10	COC(=O)Nc1nc2ncc(-c3ccc4c(c3)CN(c3ncnc5c3CC(C)(C)CC5)CCO4)cc2[nH]1 [Example 582, methyl {6-[4-(6,6-dimethyl-5,6,7,8-tetrahydroquinazolin-4-yl)-2,3,4,5-tetrahydro-1,4-benzoxazepin-7-yl]-1H-imidazo[4,5-b]pyridin-2-yl}carbamate]
250 to 1000	Cc1ncc(-c2ccc3c(c2)CN(c2ncnc4c2CCC(C)(C)C4)CCO3)s1 [Example 152, 4-(7,7-dimethyl-5,6,7,8-tetrahydroquinoazlin-4-yl)-7-(2-methyl-1,3-thiazol-5-yl)-2,3,4,5-tetrahydro-1,4-benzoxazepine]
≤ 10	CC1(C)CCc2ncnc(N3CCOc4ccc(-c5cnc(N)c(S(=O)(=O)N6CCC(C)(N)C6)c5)cc4C3)c2C1 (stereo not drawn) [Example 440, 3-[(3-amino-3-methylpyrrolidin-1-yl)sulfonyl]-5-[4-(6,6-dimethyl-5,6,7,8-tetrahydroquinazolin-4-yl)-2,3,4,5-tetrahydro-1,4-benzoxazepin-7-yl]pyridin-2-amine]
50 to 250	COc1ccc2c(N3CCOc4ccc(-c5cnc6nc(C)[nH]c6c5)cc4C3)ncnc2c1 [Example 565, 7-(2-methyl-1H-imidazo[4,5-b]pyridin-6-yl)-4-[7-(methyloxy)quinazolin-4-yl]-2,3,4,5-tetrahydro-1,4-benzoxazepine]
≤ 10	CCNc1nc2ncc(-c3ccc4c(c3)CN(c3ncnc(C)c3Cc3ccc(F)cc3)CCO4)cc2[nH]1 [Example 250, N-ethyl-6-(4-{5-[(4-fluorophenyl)methyl]-6-methylpyrimidin-4-yl}-2,3,4,5-tetrahydro-1,4-benzoxazepin-7-yl)-1H-imidazo[4,5-b]pyridin-2-amine]
≤ 10	COCCNCc1nc2c(c(N3CCOc4ccc(-c5cnc6nc(C)[nH]c6c5)cc4C3)n1)CC(C)(C)CC2 [Example 590, N-({6,6-dimethyl-4-[7-(2-methyl-1H-imidazo[4,5-b]pyridin-6-yl)-2,3-dihydro-1,4-benzoxazepin-4(5H)-yl]-5,6,7,8-tetrahydroquinazolin-2-yl}methyl)-2-(methyloxy)ethanamine]
10 to 50	CC1(C)CCc2ncnc(N3CCOc4ccc(-c5cnc(N)c(S(=O)(=O)NCC(F)(F)F)c5)cc4C3)c2C1 [Example 365, 2-amino-5-[4-(6,6-dimethyl-5,6,7,8-tetrahydroquinazolin-4-yl)-2,3,4,5-tetrahydro-1,4-benzoxazepin-7-yl]-N-(2,2,2-trifluoroethyl)pyridine-3-sulfonamide]
≤ 10	Cc1ncnc(N2CCOc3ccc(-c4ccc(-c5ncc[nH]5)cc4)cc3C2)c1Cc1ccc(F)cc1 [Example 131, 4-{5-[(4-fluorophenyl)methyl]-6-methylpyrimidin-4-yl}-7-[4-(1H-imidazol-2-yl)phenyl]-2,3,4,5-tetrahydro-1,4-benzoxazepine]
≤ 10	CC1=CC(C)(C)Cc2c1ncnc2N1CCOc2ccc(-c3cnc(N)c(S(=O)(=O)N4CC[C@@H](N)C4)c3)cc2C1 [Example 448, 3-{[(3R)-3-aminopyrrolidin-1-yl]sulfonyl}-5-[4-(6,6,8-trimethyl-5,6-dihydroquinazolin-4-yl)-2,3,4,5-tetrahydro-1,4-benzoxazepin-7-yl]pyridin-2-amine]
≤ 10	CCC1CCc2ncnc(N3CCOc4ccc(-c5cnc6nc(C)[nH]c6c5)cc4C3)c2C1 (stereo not drawn) [Example 483, 4-(6-ethyl-5,6,7,8-tetrahydroquinazolin-4-yl)-7-(2-methyl-1H-imidaz[4,5-b]pyridin-6-yl)-2,3,4,5-tetrahydro-1,4-benzoxazepine]
10 to 50	CCNc1nc2ncc(-c3ccc4c(c3)CN(c3nc(C)nc5cc(OC)ccc35)CCO4)cc2[nH]1 [Example 642, N-ethyl-6-{4-[2-methyl-7-(methyloxy)quinazolin-4-yl]-2,3,4,5-tetrahydro-1,4-benzoxazepin-7-yl}-1H-imidazo[4,5-b]pyridin-2-amine]
≤ 10	CCCc1nc2cc(-c3ccc4c(c3)CN(c3ncnc5c3CC(C)(C)CC5)CCO4)cnc2[nH]1 [Example 225, 4-(6,6-dimethyl-5,6,7,8-tetrahydroquinazolin-4-yl)-7-(2-propyl-3H-imidazo[4,5-b]pyridin-6-yl)-2,3,4,5-tetrahydro-1,4-benzoxazepine]
10 to 50	Cc1ncnc(N2CCOc3ccc(-c4ccc5nc(N)[nH]c5n4)cc3C2)c1Cc1ccc(F)cc1 [Example 194, 5-(4-{5-[(4-fluorophenyl)methyl]-6-methylpyrimidin-4-yl}-2,3,4,5-tetrahydro-1,4-benzoxazepin-7-yl)-3H-imidazo[4,5-b]pyridin-2-amine]
50 to 250	CCc1c(C)nc(CN(C)C)nc1N1CCOc2ccc(-c3cnc4[nH]c(C)nc4c3)cc2C1 [Example 350, 1-{5-ethyl-4-methyl-6-[7-(2-methyl-3H-imidazo[4,5-b]pyridin-6-yl)-2,3-dihydro-1,4-benzoxazepin-4(5H)-yl]pyrimidin}-N,N-dimethylmethanamine]
50 to 250	CC1(C)CCc2ncnc(N3CCOc4ccc(-c5cnc6c(c5)S(=O)(=O)NC(=O)N6)cc4C3)c2C1 [Example 571, 7-[4-(6,6-dimethyl-5,6,7,8-tetrahydroquinazolin-4-yl)-2,3,4,5-tetrahydro-1,4-benzoxazepin-7-yl]-2H-pyrido[2,3-e][1,2,4]thiadiazin-3(4H)-one 1,1-dioxide]
≤ 10	Cc1nc2c(c(N3CCOc4ccc(-c5cnc6nc(C)[nH]c6c5)cc4C3)n1)CC(C)(C)CC2 [Example 550, 7-(2-methyl-1H-imidazo[4,5-b]pyridin-6-yl)-4-(2,6,6-trimethyl-5,6,7,8-tetrahydroquinazolin-4-yl)-2,3,4,5-tetrahydro-1,4-benzoxazepine]
≥ 2000	Cc1nc2cc(-c3ccc4c(c3)CN(c3nc(CN(C)C)nc(C)c3Br)CCO4)ccc2[nH]1 [Example 666, 1-{5-bromo-4-methyl-6-[7-(2-methyl-1H-benzimidazol-5-yl)-2,3-dihydro-1,4-benzoxazepin-4(5H)-yl]pyrimidin-2-yl}-N,N-dimethylmethanamine]
10 to 50	CC1(C)CCc2ncnc(N3CCOc4ccc(-c5cnc(N)c(S(=O)(=O)NC(C)(C)CN)c5)cc4C3)c2C1 [Example 403, 2-amino-N-(2-amino-1,1-dimethylethyl)-5-[4-(6,6-dimethyl-5,6,7,8-tetrahydroquinazolin-4-yl)-2,3,4,5-tetrahydro-1,4-benzoxazepin-7-yl]pyridine-3-sulfonamide]
1000 to 2000	Cc1nc2ccc(-c3ccc4c(c3)CN(c3ncnc5ccc(OCCCN(C)C)cc35)CCO4)cc2[nH]1 [Example 161, N,N-dimethyl-3-({4-[7-(2-methyl-1H-benzimidazol-6-yl)-2,3-dihydro-1,4-benzoxazepin-4(5H)-yl]quinazolin-6-yl}oxy)propan-1-amine]
10 to 50	CC(O)CNS(=O)(=O)c1cc(-c2ccc3c(c2)CN(c2ncnc4c2CC(C)(C)CC4)CCO3)cnc1N (stereo not drawn) [Example 372, 2-amino-5-[4-(6,6-dimethyl-5,6,7,8-tetrahydroquinazolin-4-yl)-2,3,4,5-tetrahydro-1,4-benzoxazepin-7-yl]-N-(2-hydroxypropyl)pyridine-2-sulfonamide]
